From the NIST ThermoML archive (doi:10.1021/je050200w)

How the values were obtained:
[1] = xn = mol fraction of the nth substance listed; details: 101 kPa, Liquid
[2] = 101 kPa, Liquid

CCCCCCCCCCCO [1-undecanol] + CCCCCCCCO
[1]
Details | mass density, 293.15 K [kg/m3] | mass density, 298.15 K [kg/m3] | mass density, 303.15 K [kg/m3] | mass density, 308.15 K [kg/m3] | mass density, 313.15 K [kg/m3] | viscosity, 293.15 K [mPa·s] | viscosity, 298.15 K [mPa·s] | viscosity, 303.15 K [mPa·s] | viscosity, 308.15 K [mPa·s] | viscosity, 313.15 K [mPa·s]
x2 = 0 | 832.2 | 828.8 | 825.4 | 821.7 | 818.6 | 17.28 | 13.72 | 11.52 | 9.35 | 7.841
x2 = 0.1003 | 831.5 | 828.1 | 824.8 | 821.3 | 817.8 | 16.4 | 13.35 | 10.95 | 9.118 | 7.665
x2 = 0.2001 | 831 | 827.6 | 824.2 | 820.7 | 817.3 | 15.21 | 12.54 | 10.36 | 8.645 | 7.35
x2 = 0.2998 | 830.5 | 827 | 823.6 | 820.2 | 816.8 | 14.4 | 11.97 | 9.808 | 8.207 | 6.995
x2 = 0.4001 | – | – | 822.9 | – | – | – | – | 9.281 | – | –
x2 = 0.4002 | 829.7 | 826.3 | – | 819.5 | 816 | 13.8 | 11.23 | – | 7.773 | 6.652
x2 = 0.4999 | 829 | 825.6 | 822.2 | 818.8 | 815.3 | 12.78 | 10.64 | 8.745 | 7.392 | 6.336
x2 = 0.5998 | 828.3 | 824.9 | 821.5 | 818.1 | 814.6 | 12.19 | 9.948 | 8.252 | 6.989 | 5.991
x2 = 0.6998 | 827.7 | 824.3 | 820.8 | 817.4 | 813.9 | 10.95 | 9.276 | 7.691 | 6.49 | 5.615
x2 = 0.8 | 826.9 | 823.5 | 820.1 | 816.6 | 813.1 | 10.24 | 8.693 | 7.271 | 6.137 | 5.295
x2 = 0.8999 | 826.2 | 822.8 | 819.3 | 815.8 | 812.3 | 9.416 | 8.002 | 6.723 | 5.728 | 4.957

CCCCCCCCCCO [decan-1-ol] + CCCCCCCCCCCO
[1], x1 = 1
Details | mass density [kg/m3] | viscosity [mPa·s]
293.15 K | 829.9 | 14.39
298.15 K | 826.5 | 11.74
303.15 K | 823 | 9.561
308.15 K | 819.6 | 8
313.15 K | 816.3 | 6.831

CCCCCCCCO [octan-1-ol]
[2]
Details | mass density [kg/m3] | viscosity [mPa·s]
283.15 K | 832.1 | 13.49
288.15 K | 828.6 | 10.87
293.15 K | 825.2 | 8.944
298.15 K | 821.9 | 7.498
303.15 K | 818.4 | 6.273
308.15 K | 815 | 5.342
313.15 K | 811.4 | 4.54

CCCCCCCCCO [nonan-1-ol] + CCCCCCCCCCCO
[1], x1 = 1
Details | mass density [kg/m3] | viscosity [mPa·s]
293.15 K | 828.1 | 11.63
298.15 K | 824.7 | 9.519
303.15 K | 821.3 | 7.806
308.15 K | 817.8 | 6.604
313.15 K | 814.3 | 5.668

CCCCCCCCCCO [decan-1-ol] + CCCCCCCCCO
[1], x2 = 0
Details | mass density [kg/m3] | viscosity [mPa·s]
283.15 K | 836.6 | 22.06
288.15 K | 833.3 | 17.99
293.15 K | 829.9 | 14.39
298.15 K | 826.5 | 11.74
303.15 K | 823 | 9.561
308.15 K | 819.6 | 8
313.15 K | 816.3 | 6.831

CCCCCCCCCCCO [1-undecanol] + CCCCCCCCCCO
[1]
Details | mass density, 293.15 K [kg/m3] | mass density, 298.15 K [kg/m3] | mass density, 303.15 K [kg/m3] | mass density, 308.15 K [kg/m3] | mass density, 313.15 K [kg/m3] | viscosity, 293.15 K [mPa·s] | viscosity, 298.15 K [mPa·s] | viscosity, 303.15 K [mPa·s] | viscosity, 308.15 K [mPa·s] | viscosity, 313.15 K [mPa·s]
x2 = 0 | 832.2 | 828.8 | 825.4 | 821.7 | 818.6 | 17.28 | 13.72 | 11.52 | 9.35 | 7.841
x2 = 0.1007 | 832 | 828.7 | 825.2 | 821.6 | 818.2 | 16.88 | 13.52 | 11.27 | 9.368 | 7.805
x2 = 0.1997 | 831.5 | 828.1 | 824.8 | 821.4 | 818 | 16.68 | 13.31 | 11.08 | 9.233 | 7.778
x2 = 0.2999 | 831.4 | 828 | 824.6 | 821.2 | 817.8 | 16.14 | 13.23 | 10.89 | 9.057 | 7.655
x2 = 0.3998 | 831.2 | 827.8 | 824.4 | 821 | 817.5 | 16.08 | 12.88 | 10.7 | 8.909 | 7.579
x2 = 0.4997 | 831 | 827.6 | 824.2 | 820.8 | 817.3 | 15.59 | 12.79 | 10.51 | 8.76 | 7.452
x2 = 0.5978 | 830.8 | 827.4 | 824 | 820.6 | 817.1 | 15.59 | 12.58 | 10.34 | 8.652 | 7.323
x2 = 0.6999 | 830.5 | 827.1 | 823.7 | 820.3 | 816.9 | 15.28 | 12.35 | 10.14 | 8.504 | 7.249
x2 = 0.7989 | 830.4 | 827 | 823.5 | 820.2 | 816.7 | 14.5 | 12.12 | 9.958 | 8.357 | 7.068
x2 = 0.8995 | 830.1 | 826.8 | 823.3 | 819.9 | 816.5 | 14.76 | 11.98 | 9.777 | 8.185 | 6.94

CCCCCCCCO [octan-1-ol] + CCCCCCCCCO
[1], x1 = 1
Details | mass density [kg/m3] | viscosity [mPa·s]
283.15 K | 832.1 | 13.49
288.15 K | 828.6 | 10.87
293.15 K | 825.2 | 8.944
298.15 K | 821.9 | 7.498
303.15 K | 818.4 | 6.273
308.15 K | 815 | 5.342
313.15 K | 811.4 | 4.54

CCCCCCCCO [octan-1-ol] + CCCCCCCCCCCO
[1], x1 = 1
Details | mass density [kg/m3] | viscosity [mPa·s]
293.15 K | 825.2 | 8.944
298.15 K | 821.9 | 7.498
303.15 K | 818.4 | 6.273
308.15 K | 815 | 5.342
313.15 K | 811.4 | 4.54

CCCCCCCCO [octan-1-ol] + CCCCCCCCCCO
[1], x1 = 1
Details | mass density [kg/m3] | viscosity [mPa·s]
283.15 K | 832.1 | 13.49
288.15 K | 828.6 | 10.87
293.15 K | 825.2 | 8.944
298.15 K | 821.9 | 7.498
303.15 K | 818.4 | 6.273
308.15 K | 815 | 5.342
313.15 K | 811.4 | 4.54

CCCCCCCCCO [nonan-1-ol]
[2]
Details | mass density [kg/m3] | viscosity [mPa·s]
283.15 K | 835 | 17.44
288.15 K | 831.5 | 14.27
293.15 K | 828.1 | 11.63
298.15 K | 824.7 | 9.519
303.15 K | 821.3 | 7.806
308.15 K | 817.8 | 6.604
313.15 K | 814.3 | 5.668

CCCCCCCCCCO [decan-1-ol]
[2]
Details | mass density [kg/m3] | viscosity [mPa·s]
283.15 K | 836.6 | 22.06
288.15 K | 833.3 | 17.99
293.15 K | 829.9 | 14.39
298.15 K | 826.5 | 11.74
303.15 K | 823 | 9.561
308.15 K | 819.6 | 8
313.15 K | 816.3 | 6.831

CCCCCCCCCCCO [1-undecanol]
[2]
Details | mass density [kg/m3] | viscosity [mPa·s]
293.15 K | 832.2 | 17.28
298.15 K | 828.8 | 13.72
303.15 K | 825.4 | 11.52
308.15 K | 821.7 | 9.35
313.15 K | 818.6 | 7.841

CCCCCCCCCCCO [1-undecanol] + CCCCCCCCCO
[1]
Details | mass density, 293.15 K [kg/m3] | mass density, 298.15 K [kg/m3] | mass density, 303.15 K [kg/m3] | mass density, 308.15 K [kg/m3] | mass density, 313.15 K [kg/m3] | viscosity, 293.15 K [mPa·s] | viscosity, 298.15 K [mPa·s] | viscosity, 303.15 K [mPa·s] | viscosity, 308.15 K [mPa·s] | viscosity, 313.15 K [mPa·s]
x2 = 0 | 832.2 | 828.8 | 825.4 | 821.7 | 818.6 | 17.28 | 13.72 | 11.52 | 9.35 | 7.841
x2 = 0.1002 | 831.7 | 828.3 | 824.9 | 821.5 | 818.1 | 16.58 | 13.43 | 11.15 | 9.247 | 7.609
x2 = 0.1996 | 831.3 | 827.9 | 824.5 | 821.1 | 817.7 | 16.08 | 12.83 | 10.73 | 8.926 | 7.373
x2 = 0.3004 | 830.9 | 827.5 | 824.1 | 820.7 | 817.3 | 15.38 | 12.55 | 10.37 | 8.681 | 7.298
x2 = 0.4001 | 830.6 | 827.2 | 823.8 | 820.3 | 816.9 | 14.91 | 11.98 | 9.973 | 8.333 | 7.04
x2 = 0.5 | 830.2 | 826.8 | 823.4 | 819.9 | 816.5 | 14.29 | 11.52 | 9.577 | 8.014 | 6.872
x2 = 0.6002 | 829.8 | 826.4 | 823 | 819.5 | 816.1 | 13.61 | 11.32 | 9.2 | 7.71 | 6.627
x2 = 0.6994 | 830.1 | 826.6 | 823.2 | 819.7 | 816.3 | 12.84 | 10.55 | 8.746 | 7.333 | 6.267
x2 = 0.7995 | 829.1 | 825.6 | 822.2 | 818.8 | 815.3 | 12.68 | 10.35 | 8.272 | 7.133 | 6.138
x2 = 0.8988 | – | – | – | 818.1 | – | – | – | – | 6.897 | –
x2 = 0.8997 | 828.4 | 825 | 821.5 | – | 814.6 | 12.13 | 9.929 | 8.195 | – | 5.93
